Laboratory results taken from patent US20100249175A1, “Dicationic compounds which selectively recognize G-quadruplex DNA” (priority 2005, published 2010).
Where a name gives a salt, the structure may show the parent alone. Read-outs that look alike come from different tables or passages of the source.

Key:
[1] = system: telomeric G-quadruplex DNA sequence d[AG3(T2AG3)3] (SEQ ID NO: 1); assay: CD titration of compounds into human telomeric G-quadruplex DNA (induced CD); type: binding; set-up: key to Induced CD (no exciton): ++: Relative strength of the induced CD is indicated by the number of (+) marks; +++: Relative strength of the induced CD is indicated by the number of (+) marks; ++++: Relative strength of the induced CD is indicated by the number of (+) marks; details: for Induced CD (exciton) / Induced CD (no exciton): G-Quadruplex Affinity
Text: The oligonucleotides d[AG3(T2AG3)3] (SEQ ID NO: 1), d[AG3TG4AG3TG4A] (SEQ ID NO: 2), d[G4(T4G4)3] (SEQ ID NO: 3), d[(T2G4)4] (SEQ ID NO: 4), d[(GC)7] (SEQ ID NO: 5), d[[…]] (SEQ ID NO: 6), d[G2T2G2TGTG2T2G2] (SEQ ID NO: 7), d[[…]] (SEQ ID NO: 8), d[[…]] (SEQ ID NO: 9), d[[…]] (SEQ ID NO: 10), d[[…]] (SEQ ID NO: 11), d[TTAGGGT] (SEQ ID NO: 12), and d[TGGGGT] (SEQ ID NO: 13) were purchased with HPLC purification from Midland Certified Reagent Company (The Midland Certified Reagent Company, Inc., Midland, Tex., USA). The concentration of each DNA sample was determined spectrophotometrically at 260 nm using the nearest neighbor extinction coefficient.
Stock solutions of individual dicationic polyaryl compounds were prepared in double distilled water and diluted to working concentrations immediately before use with buffer. All measurements were performed at 20° C. in a 10 mM HEPES buffer (pH 7.4) containing 3 mM EDTA and 50 mM KCl, NaCl, or LiCl. Absorbance spectra were obtained on a Varian Cary 300 BIO UV-visible spectrophotometer (Varian, Inc., Palo Alto, Calif., United States of America) in a quartz cell with a 1 cm pathlength. CD spectra were recorded using a Jasco J-810 spectrapolarimeter (Jasco, Inc., Easton, Md., United States of America) in a 1-cm cell using an instrument scanning speed of 50 nm/min with a response time of 1 s. The spectra were averaged over four scans. A buffer baseline scan was collected in the same cuvette and subtracted from the average scan for each sample. Appropriate amounts of dicationic compound stock solution or DNA were added sequentially to increase the molar ratio.
When an achiral ligand binds tightly to a chiral host, such as DNA, a CD signal is induced in the wavelength region corresponding to the absorbance of the ligand. […] An additional negative band centered at 395 nm overlaps with the higher energy exciton band. […] Restriction of the rotational and translational freedom of the two molecules of the dimer relative to each other will cause an increase in the rotational strength of the induced CD band, resulting in a large ellipticity. See Allenmark, S., Chirality, 15, 409-422 (2003).
Some compounds appeared to bind to the telomeric G-quadruplex DNA sequence d[AG3(T2AG3)3] […] Relative strength of the induced CD is indicated by the number of (+) marks.

[2] = system: Trypanosoma brucei rhodesiense (T. b. r.); assay: In vitro antiprotozoal activity against T. b. r.; type: cell-based
Procedure: (§1) In vitro antiprotozoal activities were measured following established protocols. […] E., et al., Bioorg.

[3] = system: Plasmodium falciparum (P. f.); assay: In vitro antiprotozoal activity against P. f.; type: cell-based; details: read-out: P.f. (IC50)
Procedure: as §1

[4] = system: STIB 900 strain of Trypanosoma brucei rhodesiense (T. b. r.); assay: In vivo T. b. r. STIB 900 mouse model; details: for In Vivo T.b.r. survival time: observation up to day 60; for In Vivo T.b.r. cures: mice cured / mice infected, days 3-6 post-infection
Procedure: Groups of four mice were infected intraperitoneally with 2×10^5 bloodstream forms of T. b. r. STIB 900 which originates from a patient in Tanzania. On days 3, 4, 5, and 6 post-infection the experimental groups were treated with the drugs either by the intraperitoneal or for prodrugs by the oral route. Usually the highest tolerated dose was used which was determined in a pretoxicological experiment. Parasitemia of the mice was checked daily up to day 14 post-infection and thereafter 2 times per week up to day 60. One group of mice was not treated and acted as control. For relapsing mice, the day of death was recorded and the survival time determined.

Row | SMILES | melting point [°C] | IC50 [2] [nM] | IC50 ([3]; in vitro) [nM] | Induced CD (no exciton) [1] | further results
1 | c1cc(-c2ccc(-c3ccc(C4=NCCN4)o3)o2)oc1C1=NCCN1 [Compound 49] |  | 793 | 93 |  | exciton splitting in CD spectra (in words) [1]: induced exciton splitting; Induced CD (exciton) [1]: ++
2 | N=C(N)c1ccc(-c2ccc(-c3ccc(C(=N)N)cc3)o2)cc1 [furamidine, reference compound] |  |  |  |  | In Vivo T.b.r. survival time ([4]; 5 mg/kg ip): 46.5 days
3 | CC1=CC(C(=N)N)=CN2C=C(c3ccc(-c4ccc(C(=N)N)cc4)o3)NC12 (centres unmarked) [Compound 53] |  | 9 | 88 | +++ | In Vivo T.b.r. cures ([4]; 5 mg/kg ip): 4/4; In Vivo T.b.r. survival time ([4]; 5 mg/kg ip): > 60 days
4 | N=C(N)c1ccc(-c2ccc(-c3ccc(C(=N)N)o3)cc2)cc1 [Compound 51] |  | 5 | 1 |  | exciton splitting in CD spectra (in words) [1]: induced exciton splitting; Induced CD (exciton) [1]: +
5 | COc1ccc(-c2nc3ccc(-c4nc5ccc(C(=N)N)cc5[nH]4)cc3[nH]2)cc1 [Compound 46] |  | 16 | 29 | ++++ | In Vivo T.b.r. cures ([4]; 5 mg/kg ip): 0/4; In Vivo T.b.r. survival time ([4]; 5 mg/kg ip): 14.75 days
6 | N=C(N)c1ccc(-c2ccc(-c3ccc(-c4ccc(C(=N)N)cc4)o3)o2)cc1 [Compound 17, 5,5′-bis-(4-Amidinophenyl)-2,2′-bifuran hydrochloride salt] |  |  |  |  | exciton splitting in CD spectra (in words) [1]: induced exciton splitting; Induced CD (exciton) [1]: ++++; IC50 [3]: 20 nM; In Vivo T.b.r. cures ([4]; 10 mg/kg ip): 0/4; In Vivo T.b.r. survival time ([4]; 10 mg/kg ip): 22 days
7 | c1ccc2[nH]c(-c3ccc(-c4ccc(C5=NCCN5)cc4)o3)nc2c1 [Compound 50] |  |  |  | +++ | 
8 | N=C(N)c1ccc(-c2ccc(-c3nc4ccc(C(=N)N)cc4[nH]3)o2)cc1 [Compound 47] |  | 122 | 96 | +++ | In Vivo T.b.r. cures ([4]; 20 mg/kg ip): 1/4; In Vivo T.b.r. survival time ([4]; 20 mg/kg ip): > 27.75 days
9 | c1cc(-c2ccc(-c3nc4ccc(C5=NCCN5)cc4[nH]3)o2)ccc1C1=NCCN1 [Compound 48] |  |  |  | ++++ | 
10 | N=C(N)c1ccc2nc(-c3ccc(-c4ccc(C(=N)N)o4)o3)[nH]c2c1 [Compound 45] |  | 102 | 92 | ++ | 
11 | N=C(N)c1ccc(-c2ccc(-c3ccc(-c4ccc(C(=N)N)cc4)s3)s2)cc1 [Compound 26a, 5,5′-Bis-(4-amidinophenyl)-2,2′-bithiophene] | > 300 |  |  |  | 
12 | N=C(N)c1ccc2nc(-c3ccc(-c4ccc(C(=N)N)c(F)c4)o3)[nH]c2c1 [Compound 52] |  | 52.5 | 31 | +++ | In Vivo T.b.r. cures ([4]; 20 mg/kg ip): 2/4; In Vivo T.b.r. survival time ([4]; 20 mg/kg ip): > 52 days

Further lines, with some results ahead:

Row | melting point [°C] | SMILES | IC50 [2] [nM] | IC50 ([3]; in vitro) [nM] | Induced CD (no exciton) [1] | further results
13 | > 300 | N=C(N)c1ccnc(-c2ccc(-c3ccc(-c4cc(C(=N)N)ccn4)[se]3)[se]2)c1 |  |  |  | 
14 | > 300 | N=C(N)c1ccnc(-c2ccc(-c3ccc(-c4cc(C(=N)N)ccn4)s3)s2)c1 [Compound 26b, 5,5′-Bis-(4-amidino-2-pyridyl)-2,2′-bithiophene] |  |  |  | 
15 | > 300 | N=C(N)c1ccc(-c2ccc(-c3ccc(-c4ccc(C(=N)N)cn4)o3)o2)nc1 [Compound 22, 5,5′-Bis-(5-amidino-2-pyridyl)-2,2′-bifuran] |  |  |  | 
16 | > 300 | N=C(N)c1ccc(-c2ccc(-c3ccc(-c4ccc(C(=N)N)cc4)[se]3)[se]2)cc1 |  |  |  | 
